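These data come from cells grown in 96-well plates and exposed to compound for 48 hours at five concentrations. At the GI50, growth is halved.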 The source made the active and inactive calls. Rule as the data show it: active = GI50 up to about 1.1 µM and inactive = higher. Where only a bound is given, the exact number is not on record here.

Test systems include RPMI-8226; U-251; A498; NCI/ADR-RES; SK-OV-3; HOP-62; LOX IMVI; MOLT-4; TK-10; SF-295; SR; NCI-H23; IGROV-1; PC-3; HOP-92; MDA-MB-435; SF-268; SN12C; SK-MEL-28; RXF 393.
What all share (experiment): NCI-60 cell line screen, 48 h

As for `O=C1C2=C(C(=O)c3c(O)ccc(O)c31)[C@@H](O)[C@@H](O)[C@@H](O)C2`, the GI50 in the assay with RPMI-8226 was 1.02 µM (active); with U-251, 4.82 µM (inactive); in the assay with A498 it was 7.05 µM (inactive); in the assay with NCI/ADR-RES it was 2.66 µM (inactive); in the assay with SK-OV-3, 18.2 µM (inactive); with HOP-62, 3.97 µM (inactive). For the same molecule, the GI50 in the assay with LOX IMVI was 2 µM (inactive); in the assay with MOLT-4, 2.94 µM (inactive); in the assay on TK-10, 1.52 µM (inactive); with SF-295, 7.24 µM (inactive); with SR it was > 100 µM (inactive); in the assay on NCI-H23, 1.96 µM (inactive). The GI50 in the assay on IGROV-1 is 2.75 µM (inactive); with PC-3, 2.66 µM (inactive); with HOP-92, 1.34 µM (inactive); in the assay on MDA-MB-435, 1.57 µM (inactive); in the assay with SF-268 it was 2.78 µM (inactive); in the assay on SN12C, 2.01 µM (inactive). The results for the GI50 in the assay with SK-MEL-28 and in the assay with RXF 393 were 2.26 µM (inactive) and 1.85 µM (inactive), respectively.
As for `O=c1oc2cc(O)ccc2c(O)c1C(c1ccccc1F)c1c(O)c2ccc(O)cc2oc1=O`, the GI50 in the assay with RPMI-8226 was 29.6 µM (inactive); in the assay on U-251, 42.3 µM (inactive); with A498, > 100 µM (inactive); with NCI/ADR-RES it was > 100 µM (inactive); with SK-OV-3, > 100 µM (inactive); in the assay with HOP-62, > 100 µM (inactive). Also, the GI50 is 46 µM (inactive) in the assay on LOX IMVI; 45.8 µM (inactive) in the assay with MOLT-4; > 100 µM (inactive) in the assay on TK-10; > 100 µM (inactive) in the assay with SF-295; 34.7 µM (inactive) in the assay on SR; > 100 µM (inactive) with NCI-H23. Moreover, the GI50 with IGROV-1 is > 100 µM (inactive); in the assay on PC-3, > 100 µM (inactive); in the assay with HOP-92, 65.2 µM (inactive); with MDA-MB-435, 43.8 µM (inactive); in the assay on SF-268, 78.2 µM (inactive); in the assay with SN12C, > 100 µM (inactive). Moreover, the GI50 was 52 µM (inactive) in the assay on SK-MEL-28 and 39.7 µM (inactive) in the assay with RXF 393.
Turning to `O=C(Cn1c(C(=O)/C=C/c2ccco2)nc2ccccc21)c1ccc(Cl)cc1`, the GI50 with RPMI-8226 is 10.1 µM (inactive); in the assay with U-251, 23.8 µM (inactive); with A498, 17.2 µM (inactive); in the assay with NCI/ADR-RES, 11.8 µM (inactive); in the assay on SK-OV-3, 44.4 µM (inactive); in the assay with HOP-62, 46.8 µM (inactive). Moreover, the GI50 with LOX IMVI is 13.8 µM (inactive); with TK-10, 25.1 µM (inactive); in the assay with SR it was 3.03 µM (inactive); with NCI-H23, 11.9 µM (inactive); in the assay with IGROV-1, 15.1 µM (inactive); in the assay on PC-3, 15.8 µM (inactive). Also, the GI50 was 26.4 µM (inactive) in the assay on HOP-92; 12.1 µM (inactive) in the assay with MDA-MB-435; 9.71 µM (inactive) in the assay with SF-268; 15.2 µM (inactive) in the assay with SN12C; 26.6 µM (inactive) in the assay with SK-MEL-28; 30.4 µM (inactive) in the assay with RXF 393.
As for `CCc1ccccc1N1CCN(C(=O)c2cc(OC)c(OC)c(OC)c2)CC1`, the GI50 in the assay with RPMI-8226 was 0.149 µM (active); in the assay on U-251 it was 0.0316 µM (active); in the assay with A498, 0.0303 µM (active); in the assay on NCI/ADR-RES, 0.0151 µM (active); in the assay on SK-OV-3, 0.0375 µM (active); in the assay with HOP-62, 0.0217 µM (active). Also, the GI50 in the assay on LOX IMVI is 0.0307 µM (active); in the assay with MOLT-4, 0.148 µM (active); in the assay on TK-10, 0.0248 µM (active); in the assay on SF-295 it was 0.0134 µM (active); with SR, 0.0893 µM (active); in the assay on NCI-H23, 0.0557 µM (active). The GI50 with IGROV-1 was 0.0462 µM (active); in the assay with PC-3, < 0.0144 µM (active); in the assay with HOP-92, 0.0977 µM (active); in the assay with MDA-MB-435, < 0.01 µM (active); in the assay with SF-268, 0.114 µM (active); in the assay on SN12C, 0.184 µM (active). Besides, the GI50 with SK-MEL-28 was 0.251 µM (active); with RXF 393, 0.0105 µM (active).
Take `O=C1C[C@@]23CCC4(CC2=CCC[C@H]3O1)OCCO4`: the GI50 in the assay on RPMI-8226, in the assay on U-251, in the assay on A498, in the assay with NCI/ADR-RES, in the assay with SK-OV-3 and in the assay on HOP-62 was > 100 µM (inactive) in each case. The GI50 with LOX IMVI, in the assay on MOLT-4, with TK-10, in the assay on SF-295, in the assay with SR and in the assay on NCI-H23 was > 100 µM (inactive) each time. Besides, the GI50 with IGROV-1, in the assay on PC-3, in the assay with HOP-92, in the assay on MDA-MB-435, in the assay with SF-268 and in the assay with SN12C was > 100 µM (inactive) throughout. The GI50 with SK-MEL-28 and in the assay on RXF 393 was > 100 µM (inactive) in each case.
Take `CCCCc1ccc(Nc2nc(Cl)c3c(ncn3COCCOC(C)=O)n2)cc1`: the GI50 in the assay with RPMI-8226 is 29 µM (inactive); in the assay on U-251, 22.9 µM (inactive); in the assay with A498, 20.5 µM (inactive); with NCI/ADR-RES, 23.5 µM (inactive); in the assay on SK-OV-3, 17.1 µM (inactive); in the assay on HOP-62, 16.7 µM (inactive). Further, the GI50 is 17.5 µM (inactive) in the assay with LOX IMVI; 20.4 µM (inactive) in the assay on MOLT-4; 20.4 µM (inactive) in the assay with TK-10; 14.4 µM (inactive) with SF-295; 20.7 µM (inactive) with SR; 18.7 µM (inactive) in the assay on NCI-H23. In addition, the GI50 with IGROV-1 was 19.2 µM (inactive); in the assay on PC-3 it was 20.9 µM (inactive); with HOP-92, 18.6 µM (inactive); in the assay on MDA-MB-435, 17.7 µM (inactive); with SF-268, 19.2 µM (inactive); with SN12C, 19.3 µM (inactive). Also, the GI50 in the assay on RXF 393 was 12.9 µM (inactive).
As to `CCN(CC)c1ccc2cc(-c3nc4ccccc4n3C)c(=O)oc2c1`, the GI50 in the assay on RPMI-8226 was 0.33 µM (active); with U-251 it was 0.352 µM (active); in the assay on A498 it was 0.0163 µM (active); in the assay on NCI/ADR-RES it was 0.135 µM (active); in the assay on SK-OV-3 it was 0.33 µM (active); with HOP-62, 0.411 µM (active). For the same molecule, the GI50 in the assay on LOX IMVI is 0.495 µM (active); in the assay on MOLT-4, 0.533 µM (active); in the assay with TK-10, > 100 µM (inactive); in the assay on SF-295, 0.285 µM (active); in the assay with SR, 0.0986 µM (active); with NCI-H23, 0.334 µM (active). The GI50 in the assay on IGROV-1 was 0.485 µM (active); in the assay with PC-3, 0.2 µM (active); in the assay with HOP-92, 0.873 µM (active); with MDA-MB-435 it was 0.0369 µM (active); with SF-268, 2.05 µM (inactive); with SN12C it was 0.713 µM (active). The GI50 in the assay on RXF 393 is 1.74 µM (inactive).
